Key:
[1] = tested on: pancreatic islets; assay: Morphologic observation on islet of model rats (HE, immunofluorescence, TEM); format: in vivo, rat
Procedure: HE staining on paraffin section was performed as described in reports. In brief, paraffin section were rinsed with PBS, fixed with 4% paraformaldehyde (PFA) for 30 min and then washed by PBS. The pancreas tissue were stained with Hematoxylin-Eosin, afterwards, they were dehydrated in alcohols. Morphological changes of the pancreas tissue were observed under an optical microscope (Olympus, Japan) after mounted by neutral resins.
Pancreas sections (8 μm) were cut in a cryostat and collected on superfrost microscope slides. The slides were stored at −20 °C till analysis. Immunofluorescent staining was used for detection of insulin (β cells) (1:100, Anti-Insulin antibody, Abcam), glucagon (α cells) (1:200, Anti-glucagon, Abcam). Briefly, the slides were blocked in 5% normal goat serum for 1 h in a humidified chamber. Slides were exposed to primary antibodies at a dilution of […] in antibody diluting solution at 4 °C overnight, washed in PBS, and exposed to appropriate secondary antibodies linked to the fluorescent probes (Goat Anti-Guinea pig IgG/FITC and Alexa Fluor 594-conjugated Goat Anti-Rabbit IgG) (Bioss and Proteintech, China) in antibody diluting solution for 1 h and DAPI (Beyotime, China) for 5 min in the dark. After washed by PBS, slides were mounted with a glycerol mounting medium. Images were collected using a fluorescent microscope (Nikon, Japan).
For transmission electron microscopy, about 1 mm^3 tissue specimens were obtained from the same pancreas region of the control and experimental groups of rats, and fixed overnight in 2% glutaraldehyde (pH7.3) in 0.1 M phosphate buffer saline at 4 °C. Images of pancreatic islets were captured from random tissue sections using a transmission electron microscope.

[2] = tested on: TG, LDL-C; assay: TG and LDL-C plasma levels in model rats; format: in vivo, rat; settings: 3 mg/kg
Procedure: (§1) To establish model of T2DM, male rats (80–100 g, 9-week-old)[49] were fed high fat diet (HFD) (20% sugar, 10% lard, 10% egg yolk and 60% basal feed) after a week of normal diet. After 4 weeks, rats were injected once with low-dose streptozotocin (Solarbio, China) (STZ, 30 mg/kg i.p) to induce partial insulin deficiency, and then continuously fed HFD for 4 weeks after injection of STZ. Then the model rats were oral administrated drugs for 30 days. The body weights were recorded once a week.
(§2) Oral glucose load, fasted and random blood samples were collected from rats on the 28th days, the 29th days and the last of the treatment of drugs, respectively. Plasma levels of insulin and GLP-1 were measured by ELISA kits (YuanYe, China) according to the manufacturer’s recommendation. The levels of HbA1c, Triglycerides (TG), total cholesterol (TC) and low density lipoprotein cholesterol (LDL-C) in blood samples were measured by commercial assay kits (JianCheng, Nanjing, China) according to the manufacturer’s directions.

[3] = tested on: INS-1 cells; assay: Proliferation of INS-1 cells (CCK-8); format: cell-based, rat; settings: 24 h, CCK-8, vs DMSO
Procedure: The rat insulinoma cell line INS-1 (832/13) was obtained from the Department of endocrinology at 1st affiliated hospital of Chongqing medical university. Cells were cultured in RPMI 1640 (Gibco, USA) (11 mmol/l glucose, 100 units/ml penicillin, […] streptomycin, 10 mmol/l HEPES pH 7.4) supplemented with 10% FBS (Gibco, USA), 2 mmol/l L-glutamine, 1 mmol/l pyruvate, and 50 μmol/l β-mercaptoethanol. […] 10 μl of CCK-8 was then added and incubated at 37 °C and 5% CO2 for 1.5 h and […] (OD) was read at 460 nm with microplate reader. The OD value represents the proliferation activity.

[4] = tested on: insulin; assay: Plasma insulin levels in model rats (ELISA); format: in vivo, rat; settings: 3 mg/kg, fasted and glucose load plasma
Procedure: as §1, §2

[5] = tested on: model rats (HFD/low-dose STZ, T2DM); assay: Oral glucose tolerance test (OGTT) in HFD/STZ T2DM model rats; format: in vivo, rat; settings: 3 mg/kg oral, model rats
Procedure: as §1
On the 1st day, 19th days and 29th days of treatment, oral glucose tolerance tests for model rats were carried out. […] The blood glucose levels were tested using Johnson one touch Ultra Test Strips on Johnson Performa blood glucose meter.

[6] = tested on: NCI-H716 cells; assay: GLP-1 secretion in NCI-H716 cells; format: cell-based, human; settings: 10, 30, 100 μM, 2 h, compared with solvent group
Procedure: Human enteroendocrine NCI-H716 cells were maintained in suspension culture as described by the American Type Culture Collection guideline (ATCC). Two days before the experiments, cells were seeded into 12-well culture plates coated with Matrigel at 1 × 10^6 cells per well. Cells were incubated in RPMI 1640 containing 10% FBS at 37 °C for 48 h. […] After incubated for 2 h, GLP-1 concentrations from the supernatants were measured by ELISA kits (YuanYe, China).

[7] = Body weight of model rats; format: in vivo, rat; settings: 30 days treatment
Procedure: as §1

[8] = tested on: HbA1c; assay: HbA1c level in blood of model rats; format: in vivo, rat; settings: 3 mg/kg, 30 days
Procedure: as §1, §2

N#C[C@@H]1CCCN1C(=O)CNC12CC3CC(CC(O)(C3)C1)C2 [vildagliptin, reference compound]
distribution of β cells (insulin/glucagon double staining) ([1]; 30 days treatment): obviously improved | mass of α-cells (insulin/glucagon double staining) ([1]; 30 days treatment): mildly reduced | morphology of pancreatic islets (HE staining) ([1]; 30 days treatment): prevent islet from damage | secretory granules in β cells (transmission electron microscopy) ([1]; compared with the model): obviously increased | reduction of LDL-C level [2]: 15.97% | reduction of TG level [2]: 38.79% | cells viabilities (proliferation) of INS-1 cells [3]: increased | insulin levels in plasma [4]: significantly increased | percentage reduction of blood glucose levels in OGTT ([5]; 1st day): 8.9% | percentage reduction of blood glucose levels in OGTT ([5]; 19th day): 10.1% | percentage reduction of blood glucose levels in OGTT ([5]; 29th day): 17.8% | GLP-1 levels (secretion) [6]: increased slightly without significance | body weights vs model group [7]: no significant difference | reduction of the level of HbA1c [8]: 2.0%

— publication PMC5390258, “CMD-05, a novel promising clinical anti-diabetic drug candidate, in vivo and vitro studies” (Scientific Reports, 2017)
